pIC50: −log10 of the molar value.
Tested on: 857933-349-R-J2-PDC complex spheroids, viability
Assay: Anticancer human tumor 857933-349-R-J2-PDC patient-derived colon adenocarcinoma cell line growth inhibition [GQUAD]
Conditions: for pIC50: curve of first compound; for viability, T/C: stronger effect = lower value
Procedure, shortened: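 Multi-cell-type spheroids of tumor cells with HUVEC and mesenchymal stem cells, treated with drug combinations. Concentrations descend in half-log steps from near clinical Cmax, or from 10 microM where Cmax is unknown; viability read-out.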

[1] = second compound 0.0316 µM, first compound 0.0316 µM
[2] = second compound 0.0316 µM, first compound 0.316 µM
[3] = second compound 0.1 µM, first compound 0.0316 µM
[4] = second compound 0.1 µM, first compound 0.316 µM
[5] = second compound 0.316 µM, first compound 0.0316 µM
[6] = second compound 0.316 µM, first compound 0.316 µM
[7] = second compound 1 µM, first compound 0.0316 µM
[8] = second compound 1 µM, first compound 0.316 µM
[9] = second compound 3.16 µM, first compound 0.0316 µM
[10] = second compound 3.16 µM, first compound 0.316 µM
[11] = second compound 10 µM, first compound 0.0316 µM
[12] = second compound 10 µM, first compound 0.316 µM
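Note: spheroids exposed to compounds for one week before readout.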
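Throughout, for viability, T/C: percent viability relative to vehicle DMSO wells taken as 100%.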

`CC(C)(O)C1CCC(Nc2ccc3ncc(-c4cccc(C(F)(F)F)c4)n3n2)CC1` (centres undefined) + CN(C)c1ccc(Nc2c3ccc(NC(=O)CCN4CCCC4)cc3nc3cc(NC(=O)CCN4CCCC4)ccc23)cc1 was tested, and the pIC50 (second compound 0.0316 µM) was 6.10, the pIC50 (second compound 0.1 µM) was 6.14 and the pIC50 (second compound 0.316 µM) was 6.16. For the same molecule, the pIC50 (second compound 1 µM) was 6.16, the pIC50 (second compound 3.16 µM) was 6.22 and the pIC50 (second compound 10 µM) was 6.34. It also gave a viability, T/C [1] of 117%, a viability, T/C (second compound 0.0316 µM, first compound 0.1 µM) of 98.4% and a viability, T/C [2] of 97.5%. For the same molecule, the viability, T/C (second compound 0.0316 µM, first compound 1 µM) was 39.1%, the viability, T/C (second compound 0.0316 µM, first compound 3.16 µM) was 2.79% and the viability, T/C (second compound 0.0316 µM, first compound 10 µM) was 2.75%. For the same molecule, the viability, T/C [3] was 102%, the viability, T/C (second compound 0.1 µM, first compound 0.1 µM) was 94% and the viability, T/C [4] was 89.3%. For the same molecule, the viability, T/C (second compound 0.1 µM, first compound 1 µM) was 35.6%, the viability, T/C (second compound 0.1 µM, first compound 3.16 µM) was 2.84% and the viability, T/C (second compound 0.1 µM, first compound 10 µM) was 2.87%. The viability, T/C [5] was 99%, the viability, T/C (second compound 0.316 µM, first compound 0.1 µM) was 94.3% and the viability, T/C [6] was 87.2%. It also gave a viability, T/C (second compound 0.316 µM, first compound 1 µM) of 32.6%, a viability, T/C (second compound 0.316 µM, first compound 3.16 µM) of 3.05% and a viability, T/C (second compound 0.316 µM, first compound 10 µM) of 3.1%. The viability, T/C [7] was 94%, the viability, T/C (second compound 1 µM, first compound 0.1 µM) was 83.2% and the viability, T/C [8] was 83.3%. It also gave a viability, T/C (second compound 1 µM, first compound 1 µM) of 33.8%, a viability, T/C (second compound 1 µM, first compound 3.16 µM) of 3.77% and a viability, T/C (second compound 1 µM, first compound 10 µM) of 3.15%. The viability, T/C [9] was 78.9%, the viability, T/C (second compound 3.16 µM, first compound 0.1 µM) was 75.5% and the viability, T/C [10] was 74.2%. For the same molecule, the viability, T/C (second compound 3.16 µM, first compound 1 µM) was 30.4%, the viability, T/C (second compound 3.16 µM, first compound 3.16 µM) was 7.32% and the viability, T/C (second compound 3.16 µM, first compound 10 µM) was 5.21%. The viability, T/C [11] was 62.9%, the viability, T/C (second compound 10 µM, first compound 0.1 µM) was 66.4% and the viability, T/C [12] was 59.4%. For the same molecule, the viability, T/C (second compound 10 µM, first compound 1 µM) was 30.1%, the viability, T/C (second compound 10 µM, first compound 3.16 µM) was 15.3% and the viability, T/C (second compound 10 µM, first compound 10 µM) was 9.67%.

`Cc1[nH]c2ccccc2c1CCNCc1ccc(/C=C/C(=O)NO)cc1` + Cc1[nH]c2ccc(F)cc2c1-c1nc2c3cccnc3c3ncccc3c2[nH]1 was tested, and the pIC50 (second compound 0.0316 µM) was under 6.50, the pIC50 (second compound 0.1 µM) was under 6.50 and the pIC50 (second compound 0.316 µM) was under 6.50. It also gave a pIC50 (second compound 1 µM) of under 6.50, a pIC50 (second compound 3.16 µM) of under 6.50 and a pIC50 (second compound 10 µM) of under 6.50. It also gave a viability, T/C (second compound 0.0316 µM, first compound 0.000999 µM) of 103%, a viability, T/C (second compound 0.0316 µM, first compound 0.00316 µM) of 95.8% and a viability, T/C (second compound 0.0316 µM, first compound 0.00999 µM) of 97.6%. It also gave a viability, T/C [1] of 104%, a viability, T/C (second compound 0.0316 µM, first compound 0.0999 µM) of 94% and a viability, T/C [2] of 59.1%. It also gave a viability, T/C (second compound 0.1 µM, first compound 0.000999 µM) of 104%, a viability, T/C (second compound 0.1 µM, first compound 0.00316 µM) of 101% and a viability, T/C (second compound 0.1 µM, first compound 0.00999 µM) of 102%. For the same molecule, the viability, T/C [3] was 106%, the viability, T/C (second compound 0.1 µM, first compound 0.0999 µM) was 99.7% and the viability, T/C [4] was 60.7%. It also gave a viability, T/C (second compound 0.316 µM, first compound 0.000999 µM) of 101%, a viability, T/C (second compound 0.316 µM, first compound 0.00316 µM) of 104% and a viability, T/C (second compound 0.316 µM, first compound 0.00999 µM) of 96%. It also gave a viability, T/C [5] of 92.8%, a viability, T/C (second compound 0.316 µM, first compound 0.0999 µM) of 107% and a viability, T/C [6] of 59.2%. The viability, T/C (second compound 1 µM, first compound 0.000999 µM) was 109%, the viability, T/C (second compound 1 µM, first compound 0.00316 µM) was 90% and the viability, T/C (second compound 1 µM, first compound 0.00999 µM) was 93.7%. For the same molecule, the viability, T/C [7] was 97.7%, the viability, T/C (second compound 1 µM, first compound 0.0999 µM) was 105% and the viability, T/C [8] was 61.4%. For the same molecule, the viability, T/C (second compound 3.16 µM, first compound 0.000999 µM) was 90.8%, the viability, T/C (second compound 3.16 µM, first compound 0.00316 µM) was 79.8% and the viability, T/C (second compound 3.16 µM, first compound 0.00999 µM) was 86.2%. For the same molecule, the viability, T/C [9] was 88%, the viability, T/C (second compound 3.16 µM, first compound 0.0999 µM) was 104% and the viability, T/C [10] was 66.8%. The viability, T/C (second compound 10 µM, first compound 0.000999 µM) was 87%, the viability, T/C (second compound 10 µM, first compound 0.00316 µM) was 89.4% and the viability, T/C (second compound 10 µM, first compound 0.00999 µM) was 88.1%. The viability, T/C [11] was 95.3%, the viability, T/C (second compound 10 µM, first compound 0.0999 µM) was 105% and the viability, T/C [12] was 61%.

— PubChem BioAssay AID2060491 (Molecular Pharmacology Branch, DTP, NCI, 2025)
